In patent publication US12662491B2 (Redona Therapeutics, Inc., priority 2020, dated 2026):

biological target: T1, Zcchc11 enzyme (Homo sapiens, UniProt Q5TAX3); assay: TUTase assay (Zcchc11 assay, Lin28a-dependent polyuridylation of pre-let-7); type: biochemical; details: Lin28a-dependent Zcchc11 (Z11) TUTase assay; read-out: Potency Lin28a-dep Z11 IC50
T1 construct: made in house; host or cells: HEK293 cells (Zcchc11); E. coli Rosetta II (LIN28A)
T1 sequence (Q5TAX3 212-1420): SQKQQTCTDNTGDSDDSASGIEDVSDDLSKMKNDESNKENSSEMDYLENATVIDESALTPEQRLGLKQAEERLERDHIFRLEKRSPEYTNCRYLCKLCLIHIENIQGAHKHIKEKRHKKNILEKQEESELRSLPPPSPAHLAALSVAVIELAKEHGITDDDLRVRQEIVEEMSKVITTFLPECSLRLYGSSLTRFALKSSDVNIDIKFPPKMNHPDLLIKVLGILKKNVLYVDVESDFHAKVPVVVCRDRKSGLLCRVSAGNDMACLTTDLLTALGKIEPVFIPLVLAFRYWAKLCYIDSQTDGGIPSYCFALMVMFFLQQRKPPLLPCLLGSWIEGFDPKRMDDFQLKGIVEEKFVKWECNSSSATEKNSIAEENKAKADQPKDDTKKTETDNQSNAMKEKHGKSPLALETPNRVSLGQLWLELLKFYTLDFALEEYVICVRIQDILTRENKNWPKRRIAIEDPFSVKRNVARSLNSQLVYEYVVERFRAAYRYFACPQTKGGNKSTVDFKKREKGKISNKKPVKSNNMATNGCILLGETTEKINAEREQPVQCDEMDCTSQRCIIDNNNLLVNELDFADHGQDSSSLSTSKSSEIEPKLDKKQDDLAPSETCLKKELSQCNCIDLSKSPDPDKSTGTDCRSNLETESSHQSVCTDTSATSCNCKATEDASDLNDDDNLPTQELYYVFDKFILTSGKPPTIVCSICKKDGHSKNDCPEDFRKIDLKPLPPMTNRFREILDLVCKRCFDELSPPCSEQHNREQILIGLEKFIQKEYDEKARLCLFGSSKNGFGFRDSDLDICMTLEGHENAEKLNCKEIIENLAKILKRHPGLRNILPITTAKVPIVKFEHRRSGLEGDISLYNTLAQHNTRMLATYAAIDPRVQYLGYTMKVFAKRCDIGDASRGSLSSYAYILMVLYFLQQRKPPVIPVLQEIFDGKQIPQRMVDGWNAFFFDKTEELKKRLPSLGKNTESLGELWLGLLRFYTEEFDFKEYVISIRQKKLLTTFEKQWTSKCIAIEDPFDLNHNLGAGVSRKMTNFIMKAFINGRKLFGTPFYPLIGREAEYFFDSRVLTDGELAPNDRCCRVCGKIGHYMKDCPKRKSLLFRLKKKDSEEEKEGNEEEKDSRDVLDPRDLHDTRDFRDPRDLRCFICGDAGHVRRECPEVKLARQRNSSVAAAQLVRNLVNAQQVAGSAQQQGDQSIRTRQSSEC
Procedure, shortened: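 Polyuridylation measured as fluorescein loss when a rhodamine-labelled A20 probe anneals to U-tails added to fluorescein pre-let-7 (2 nM). Reaction: truncated Zcchc11 0.2 nM, E. coli-made LIN28A 10 nM, UTP 5 uM, HEPES pH 7.3, room temperature. Initial rates fitted to four-parameter IC50.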

Row | SMILES | IC50 [µM]
1 | O=C(O)c1cn(-c2cnccn2)c2cc(N3CC(F)(F)C[C@@H]3COc3ncccc3Cl)c(Cl)cc2c1=O [Example 638, (R)-6-chloro-7-(2-(((3-chloropyridin-2-yl)oxy)methyl)-4,4-difluoropyrrolidin-1-yl)-4-oxo-1-(pyrazin-2-yl)-1,4-dihydroquinoline-3-carboxylic acid] | ≤ 1
2 | CN(C)C1CN(c2ccc(-n3cc(C(=O)O)c(=O)c4cc(Cl)c(N5CCC[C@@]5(C)COc5ncccc5Cl)cc43)cn2)C1 [Example 639, (S)-6-chloro-7-(2-(((3-chloropyridin-2-yl)oxy)methyl)-2-methylpyrrolidin-1-yl)-1-(6-(3-(dimethylamino)azetidin-1-yl)pyridin-3-yl)-4-oxo-1,4-dihydroquinoline-3-carboxylic acid] | ≤ 1
3 | COc1ccc(Cl)c(OC[C@H]2C[C@@H](O)CN2c2cc3c(cc2Cl)c(=O)c(C(=O)O)cn3-c2ccc(N3CC(N(C)C)C3)nc2)n1 [Example 641, 6-chloro-7-((2R,4R)-2-(((3-chloro-6-methoxypyridin-2-yl)oxy)methyl)-4-hydroxypyrrolidin-1-yl)-1-(6-(3-(dimethylamino)azetidin-1-yl)pyridin-3-yl)-4-oxo-1,4-dihydroquinoline-3-carboxylic acid] | ≤ 1
4 | COc1ccc(Cl)c(OC[C@H]2CC(N3CCCC3=O)CN2c2cc3c(cc2Cl)c(=O)c(C(=O)O)cn3-c2ccc(N3CC(N(C)C)C3)nc2)n1 (stereo partly drawn) [Example 642, 6-chloro-7-((5′R)-5′-(((3-chloro-6-methoxypyridin-2-yl)oxy)methyl)-2-oxo-[1,3′-bipyrrolidin]-1-yl)-1-(6-(3-(dimethylamino)azetidin-1-yl)pyridin-3-yl)-4-oxo-1,4-dihydroquinoline-3-carboxylic acid] | ≤ 1

Next, values leading:

Row | IC50 [µM] | SMILES
5 | ≤ 1 | Cc1cc2c(=O)c(C(=O)O)cn(-c3ccc(N4CC(N(C)C)C4)nc3)c2nc1N1CCC[C@@H]1COc1ncccc1Cl [Example 633, (R)-7-(2-(((3-chloropyridin-2-yl)oxy)methyl)pyrrolidin-1-yl)-1-(6-(3-(dimethylamino)azetidin-1-yl)pyridin-3-yl)-6-methyl-4-oxo-1,4-dihydro-1,8-naphthyridine-3-carboxylic acid]
6 | ≤ 1 | CN(C)C1CN(c2ccc(-n3cc(C(=O)O)c(=O)c4cc(F)c(N5CCC[C@]5(C)COc5ncccc5Cl)c(F)c43)cn2)C1 [Example 634, (R)-7-(2-(((3-chloropyridin-2-yl)oxy)methyl)-2-methylpyrrolidin-1-yl)-1-(6-(3-(dimethylamino)azetidin-1-yl)pyridin-3-yl)-6,8-difluoro-4-oxo-1,4-dihydroquinoline-3-carboxylic acid]
7 | ≤ 1 | CN(C)C1CN(c2ccc(-n3cc(C(=O)O)c(=O)c4cc(Cl)c(N5CCC6CC65COc5ncccc5Cl)cc43)cn2)C1 (stereo not drawn) [Example 635, 6-chloro-7-(1-(((3-chloropyridin-2-yl)oxy)methyl)-2-azabicyclo[3.1.0]hexan-2-yl)-1-(6-(3-(dimethylamino)azetidin-1-yl)pyridin-3-yl)-4-oxo-1,4-dihydroquinoline-3-carboxylic acid]
8 | ≤ 1 | COc1ccc(C2C[C@H](COc3nc(OC)ccc3Cl)N(c3cc4c(cc3Cl)c(=O)c(C(=O)O)cn4-c3ccc(N4CC(N(C)C)C4)nc3)C2)cn1 (stereo partly drawn) [Example 636, 6-chloro-7-((2R)-2-(((3-chloro-6-methoxypyridin-2-yl)oxy)methyl)-4-(6-methoxypyridin-3-yl)pyrrolidin-1-yl)-1-(6-(3-(dimethylamino)azetidin-1-yl)pyridin-3-yl)-4-oxo-1,4-dihydroquinoline-3-carboxylic acid]
9 | ≤ 1 | COc1ccc(Cl)c(OC[C@H]2C[C@H](NC(C)=O)CN2c2cc3c(cc2Cl)c(=O)c(C(=O)O)cn3-c2ccc(N3CC(N(C)C)C3)nc2)n1 [Example 637, 6-chloro-7-[(2R)-2-{[(3-chloro-6-methoxypyridin-2-yl)oxy]methyl}-4-acetamido-pyrrolidin-1-yl]-1-{6-[3-(dimethylamino)azetidin-1-yl]pyridin-3-yl}-4-oxo-1,4-dihydroquinoline-3-carboxylic acid]
